≈ marks a conversion by molar mass, not a printed value. Read-outs that look alike come from different tables or passages of the source. Marks after values point to notes of the source that are not given here. Values belong to the molecule of their own block, whether it stands above or below them.
Experiments:
[1] = system: Enterococcus faecalis ATCC 29212 Vancomycin Sensitive; assay: In-vitro antibacterial activity, broth microdilution MIC; type: cell-based
Procedure: (§1) The in-vitro antibacterial activity of the compounds of the present invention (as described in Table 7) was determined by a broth microdilution following the guidelines prescribed by the Clinical and Laboratory Standards Institute (CLSI). This method is described in the CLSI Document M7-A7, Vol. 26, No. 2, “Methods for Dilution Antimicrobial Susceptibility Test for Bacteria that Grow Aerobically; Approved Standard-Seventh Edition”, which is incorporated herein by reference. Minimum Inhibitory Concentration (MIC) is defined as the minimum concentration of test compound which inhibits the growth of bacteria as visible or seen by the naked eye. This test can also be carried out by agar dilution method.
(§2) The compounds of the present invention were tested against a panel of standard microorganisms obtained from ATCC (American type culture collection). Linezolid was used as comparator in all the tests.
(§3) In the broth microdilution method, the compound was dissolved in dimethylsulfoxide and two fold serial dilutions were carried out in 96 well microtitre plates. The inoculum was prepared by adjusting the turbidity of actively growing broth culture and added to the wells to obtain a final bacterial count of ˜2-5×10^4 CFU/well. The microtitre plates were incubated at 35±2° C. for 16-20 h and then read visually.

[2] = system: Enterococcus faecium ATCC 700221 VRE (Vancomycin resistant E. faecium); assay: as above; type: cell-based
Procedure: as §1, §2, §3

[3] = system: Staphylococcus aureus ATCC 29213 MSSA (Methicillin sensitive); assay: as above; type: cell-based
Procedure: as §1, §2, §3

[4] = system: Staphylococcus aureus ATCC 33591 MRSA (Methicillin resistant); assay: as above; type: cell-based
Procedure: as §1, §2, §3

male SWISS albino mice = assay: Forced Swim Test; type: in vivo; conditions: for inhibition in vivo at 32 mg/kg: Mus musculus, 0.25 h, read-out: % decrease in immobility time (dose 32 mg/kg)
Procedure: This test was conducted according to the method of Porsolt et al. (Porsolt, R. D., et al., Behavioural despair in mice: A primary screening test for antidepressants. Arch. in Pharmacodyn. Ther., 229, pp 327-336 (1977)).
A test compound was suspended in deionized water, unless otherwise specified, and this suspension was orally administered to male SWISS albino mice (7 to 9 week old). 15 min later, the mice were placed in a water tank having a water depth of 15 cm and a water temperature of 25±1° C. and immediately thereafter allowed to swim for 6 min. Then, a time during which the mouse was immobile (immobility time) was measured for the last 4 min.

[5] = ATCC29212, Table 7, E. faecalis vancomycin sensitive, broth microdilution, 35±2° C., 16-20 h, read-out: MIC ATCC 29212
[6] = Table 7, broth microdilution, 35±2° C., 16-20 h, read-out: MIC ATTC 700221
[7] = Table 7, S. aureus MSSA, broth microdilution, 35±2° C., 16-20 h, read-out: MIC ATCC 29213
[8] = Table 7, S. aureus MRSA, broth microdilution, 35±2° C., 16-20 h, read-out: MIC ATCC 33591
[9] = Table 8, mice, oral, suspended in deionized water, 15 min before test
[10] = Table 8, mice, oral, 32 mg/kg, suspended in deionized water, 15 min before test

- MIC [1, 5]: 1 µg/mL (≈ 2.23 µM)
- MIC [2, 6]: 0.25 µg/mL (≈ 0.557 µM)
- MIC [3, 7]: 1 µg/mL (≈ 2.23 µM)
- MIC [4, 8]: 0.5 µg/mL (≈ 1.11 µM)
Structure (SMILES): CC(=O)NC[C@H]1CN(c2ccc(C34CC3CN(c3nc5ccccc5s3)C4)cc2)C(=O)O1 (some centres unmarked)

Structure (SMILES): COCCN1CC2CC2(c2ccc(N3CCOCC3)cc2)C1 (centres unmarked)
- % decrease in immobility time (dose 64 mg/kg) (male SWISS albino mice; [9]): 62.4 ± 16.3%

Structure (SMILES): CCN1C[C@H]2C[C@@]2(c2ccc(N3CCOCC3)cc2)C1
- inhibition in vivo at 32 mg/kg (male SWISS albino mice; [10]): 87.7 ± 6%

Structure (SMILES): CCN1CC2CC2(c2ccc(N3CCn4cnnc4C3)cc2)C1 (centres unmarked)
- % decrease in immobility time (dose 64 mg/kg) (male SWISS albino mice; [9]): 89.6 ± 10.4%

Structure (SMILES): COCCN1C[C@H]2C[C@@]2(c2ccc(N3CCOCC3)cc2)C1
- % decrease in immobility time (dose 64 mg/kg) (male SWISS albino mice; [9]): 79.2 ± 14.9%

Structure (SMILES): CC1CN(c2ccc([C@]34CNC[C@H]3C4)cc2)CC(C)O1 (some centres unmarked)
- % decrease in immobility time (dose 64 mg/kg) (male SWISS albino mice; [9]): 63.9 ± 4.8%

Structure (SMILES): CCN1CC2CC2(c2cc3cc(N4CCOCC4)ccc3s2)C1 (centres unmarked)
- % decrease in immobility time (dose 64 mg/kg) (male SWISS albino mice; [9]): 38.4 ± 2.7%

Structure (SMILES): CCN1C[C@H]2C[C@@]2(c2ccc(N3CC(C)OC(C)C3)cc2)C1 (some centres unmarked)
- % decrease in immobility time (dose 64 mg/kg) (male SWISS albino mice; [9]): 92.4 ± 7.6%

Structure (SMILES): CCN1C[C@@H]2C[C@]2(c2ccc(N3CC(C)OC(C)C3)cc2)C1 (some centres unmarked)
- inhibition in vivo at 32 mg/kg (male SWISS albino mice; [10]): 80.9 ± 8.7%

Structure (SMILES): CCN1CC2CC2(c2ccc(N3CC(C)OC(C)C3)cc2)C1 (centres unmarked)
- inhibition in vivo at 32 mg/kg (male SWISS albino mice; [10]): 81.6 ± 10.1%

Structure (SMILES): CCN1C[C@H]2C[C@@]2(c2ccc(N3CCCC3)cc2)C1
- inhibition in vivo at 32 mg/kg (male SWISS albino mice; [10]): 97.7 ± 2.3%

Structure (SMILES): CCN1CC2CC2(c2ccc(N3CCC(F)C3)cc2)C1 (centres unmarked)
- inhibition in vivo at 32 mg/kg (male SWISS albino mice; [10]): 77.1 ± 11.2%

Structure (SMILES): CCN1CC2CC2(c2ccc(N3CCC(F)CC3)cc2)C1 (centres unmarked)
- inhibition in vivo at 32 mg/kg (male SWISS albino mice; [10]): 62.8 ± 23.4%

Structure (SMILES): CCN1C[C@H]2C[C@@]2(c2ccc(N3CCC(F)C3)cc2)C1 (some centres unmarked)
- inhibition in vivo at 32 mg/kg (male SWISS albino mice; [10]): 75.5 ± 12.9%

Structure (SMILES): CCN1CC2CC2(c2ccc(N3CCN(c4ccccc4)CC3)cc2)C1 (centres unmarked)
- % decrease in immobility time (dose 64 mg/kg) (male SWISS albino mice; [9]): 65.8 ± 9.9%

Structure (SMILES): CCN1CC2CC2(c2ccc(N3CCOC3=O)cc2)C1 (centres unmarked)
- inhibition in vivo at 32 mg/kg (male SWISS albino mice; po): 99.2 ± 0.8%

Structure (SMILES): COCC1C2CNCC21c1ccc(N2CCOCC2)cc1 (centres unmarked)
- % decrease in immobility time (dose 64 mg/kg) (male SWISS albino mice; Table 8, mice, oral, vehicle 0.25% CMC): 60.8 ± 20.9^z %

Structure (SMILES): CCN1CC2C(COC)C2(c2ccc(N3CCOCC3)cc2)C1 (centres unmarked)
- % decrease in immobility time (dose 64 mg/kg) (male SWISS albino mice; [9]): 58.4 ± 10.1%

Structure (SMILES): CCN1CC2CC2(c2ccc(N3CCOCC3=O)cc2)C1.Cl (centres unmarked)
- % decrease in immobility time (dose 64 mg/kg) (male SWISS albino mice; [9]): 88.7 ± 5.2%

Structure (SMILES): CCN1C[C@H]2C[C@@]2(c2ccc(N3C[C@H](C)O[C@@H](C)C3)cc2)C1
- inhibition in vivo at 32 mg/kg (male SWISS albino mice; [10]): 79.8 ± 10.7%

Structure (SMILES): CCOCC1C2CN(CC)CC12c1ccc(N2CCCC2)cc1 (centres unmarked)
- inhibition in vivo at 32 mg/kg (male SWISS albino mice; [10]): 80.6 ± 13.7%

- MIC [1, 5]: 2 µg/mL (≈ 5.93 µM)
- MIC [2, 6]: 1 µg/mL (≈ 2.96 µM)
- MIC [3, 7]: 2 µg/mL (≈ 5.93 µM)
- MIC [4, 8]: 1 µg/mL (≈ 2.96 µM)
Structure (SMILES): CC(=O)NC[C@H]1CN(c2ccc(N3CCOCC3)c(F)c2)C(=O)O1 [Linezolid, reference compound]

- MIC [1, 5]: 2 µg/mL (≈ 5.6 µM)
- MIC [2, 6]: 2 µg/mL (≈ 5.6 µM)
- MIC [3, 7]: 2 µg/mL (≈ 5.6 µM)
- MIC [4, 8]: 1 µg/mL (≈ 2.8 µM)
Structure (SMILES): CC(=O)NC[C@H]1CN(c2ccc(C34CC3CN(C(C)=O)C4)cc2)C(=O)O1 (some centres unmarked) [drawing 482]

- MIC [1, 5]: 4 µg/mL (≈ 12.6 µM)
- MIC [2, 6]: 4 µg/mL (≈ 12.6 µM)
- MIC [3, 7]: 4 µg/mL (≈ 12.6 µM)
- MIC [4, 8]: 2 µg/mL (≈ 6.32 µM)
Structure (SMILES): CC(=O)N1CC2CC2(c2ccc(N3C[C@H](CO)OC3=O)cc2)C1 (some centres unmarked) [drawing 484]

Structure (SMILES): c1cc(C23CNCC2C3)ccc1N1CCOCC1 (centres unmarked) [drawing 510]
- % decrease in immobility time (dose 64 mg/kg) (male SWISS albino mice; [9]): 37.6 ± 14.5%

- MIC ([1]; ATCC29212, Table 9, E. faecalis, read-out: Antimicrobial activity (in vitro MIC) ATCC 29212): 2 µg/mL (≈ 5.6 µM)
- MIC ([2]; Table 9, read-out: Antimicrobial activity (in vitro MIC) ATCC 700221): 2 µg/mL (≈ 5.6 µM)
- MIC ([3]; Table 9, S. aureus MSSA, read-out: Antimicrobial activity (in vitro MIC) ATCC 29213): 2 µg/mL (≈ 5.6 µM)
- MIC ([4]; Table 9, S. aureus MRSA, read-out: Antimicrobial activity (in vitro MIC) ATCC 33591): 1 µg/mL (≈ 2.8 µM)
Structure (SMILES): CC(=O)NC[C@H]1CN(c2ccc(C34CC3CN(C(C)=O)C4)cc2)C(=O)O1 (some centres unmarked) [drawing 533]
